Data: ChEMBL document CHEMBL5726113, “Compounds and methods for kinase modulation, and indications therefor” (2017)

Biological target: RAF proto-oncogene serine/threonine-protein kinase (Homo sapiens, UniProt P04049)
Test: Biochemical Assay: Assays for biochemical and cell based activity are known in the art, for example, as described in PCT publication WO 2007/002433, the disclosure of which is hereby incorporated by reference as it relates to such assays. For example, the biochemical activity IC50 values are determined with respect to inhibition of B-Raf kinase activity, c-Raf-1 kinase activity, or B-Raf V600E kinase activity, where inhibition of phosphorylation of a peptide substrate is measured as a function of compound concentration. Compounds to be tested are diluted in dimethyl sulfoxide to a concentration of 0.1 mM. These are serially diluted 15 μL into 30 μL of dimethyl sulfoxide seven times in 96 well plates for a total of 8 dilution points, and for each dilution point 1 μL is added to a well of an assay plate. Plates are prepared such that each well in a 384 well plate contains 1 μL of compound in 10 μL volume with 0.1 ng Raf enzyme (i.e. any of B-Raf, c-Raf-1 or B-Raf V600E, Upstate Biotechnology or prepared by methods known to one of skill in the art), 50 mM HEPES, pH 7.0, 50 mM NaCl, 2 mM MgCl2, 1 mM MnCl2, 0.01% Tween-20, 1 mM DTT, and 100 nM biotin-MEK1 as substrate. The reaction is started with addition of 10 μL of 200 μM ATP (i.e. final 100 μM ATP). […]

Chain of RAF proto-oncogene serine/threonine-protein kinase (P04049 whole entry): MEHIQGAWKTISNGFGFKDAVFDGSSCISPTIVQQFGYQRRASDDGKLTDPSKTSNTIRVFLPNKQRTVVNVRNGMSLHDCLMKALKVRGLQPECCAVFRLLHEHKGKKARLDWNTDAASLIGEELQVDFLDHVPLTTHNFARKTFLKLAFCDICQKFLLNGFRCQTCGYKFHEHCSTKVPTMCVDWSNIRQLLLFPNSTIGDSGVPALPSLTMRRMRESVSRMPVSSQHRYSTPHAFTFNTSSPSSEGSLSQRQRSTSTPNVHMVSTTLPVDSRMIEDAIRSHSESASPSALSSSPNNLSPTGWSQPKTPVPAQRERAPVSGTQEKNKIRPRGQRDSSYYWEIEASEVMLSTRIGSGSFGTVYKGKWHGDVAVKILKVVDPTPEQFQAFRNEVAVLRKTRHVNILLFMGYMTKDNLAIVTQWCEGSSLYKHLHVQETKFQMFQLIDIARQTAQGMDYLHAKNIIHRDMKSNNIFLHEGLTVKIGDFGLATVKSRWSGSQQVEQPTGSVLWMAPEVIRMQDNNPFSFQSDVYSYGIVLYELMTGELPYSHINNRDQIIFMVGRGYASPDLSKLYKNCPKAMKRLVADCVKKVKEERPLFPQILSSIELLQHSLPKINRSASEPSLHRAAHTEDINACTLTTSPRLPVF

CCCS(=O)(=O)Nc1ccc(F)c(C(=O)c2c[nH]c3ncnc(Nc4ccccc4)c23)c1F
IC50: < 100 nM
